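These data come from cells grown in 96-well plates and exposed to compound for 48 hours at five concentrations. The concentration for 50% growth inhibition is given as GI50. TGI is the concentration that stops growth completely.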

The results in this text go back to PubChem BioAssay (NCI).

Test systems include A498 renal; LOX IMVI melanoma; M14 melanoma; MALME-3M melanoma; NCI-H23 lung; NCI-H522 lung; HT29 colon; MDA-MB-231 breast; MDA-MB-435.
Test in all cases: NCI tumour cell line growth inhibition, 48 h

Consider `COc1ccc2nc3cc(Cl)ccc3c(Sc3ccccc3[N+](=O)[O-])c2c1`, for which the TGI with A498 renal, in the experiment with LOX IMVI melanoma, in the experiment with M14 melanoma, with MALME-3M melanoma, with NCI-H23 lung and in the experiment with NCI-H522 lung was over 100 µM each time.

Regarding `CC(=O)OC1COC(n2c(=S)n(-c3ccc(C)cc3)c(=O)c3ccccc32)C(OC(C)=O)C1OC(C)=O` (configuration not stated), the TGI in the experiment on A498 renal, in the experiment on HT29 colon, in the experiment on LOX IMVI melanoma, in the experiment on M14 melanoma, with MALME-3M melanoma and with NCI-H23 lung was over 100 µM each time. This molecule gave a TGI in the experiment with NCI-H522 lung of over 100 µM.

Consider `CCOC(=O)COc1cccc2c1C(=O)CCO2`, for which the TGI in the experiment on A498 renal, with HT29 colon, in the experiment with LOX IMVI melanoma, in the experiment with M14 melanoma, in the experiment on MALME-3M melanoma and in the experiment on NCI-H23 lung was over 100 µM throughout. In the experiment with NCI-H522 lung, this molecule had a TGI of over 100 µM.

`COC(=O)[C@@]12C3=NO[C@]1(C(=O)OC)C(O[Si](C)(C)C(C)(C)C)[C@H]1OC(C)(C)O[C@H]1[C@@H]2C(OCc1ccccc1)CC3` (some centres not stated): the TGI with A498 renal, in the experiment on HT29 colon, with LOX IMVI melanoma, in the experiment on M14 melanoma and in the experiment on NCI-H23 lung was over 100 µM each time.

With `COc1ccc(/C=C\c2cc(OC)c3c(c2)OCO3)c(O)c1O`, the TGI in the experiment with A498 renal was found to be 31.2 µM; with HT29 colon, 47.2 µM; with LOX IMVI melanoma, 16.6 µM; in the experiment on M14 melanoma, 11.7 µM; with MALME-3M melanoma, 48.7 µM; in the experiment with NCI-H23 lung it was 22.3 µM. The TGI in the experiment with NCI-H522 lung amounted to 3.53 µM.

Regarding `O=C(O)C(Cc1ccccc1)N1C(=O)N/C(=C\c2ccc(F)cc2)C1=O` (configuration not stated), the TGI with HT29 colon, in the experiment with LOX IMVI melanoma, in the experiment with M14 melanoma, with NCI-H23 lung and in the experiment on NCI-H522 lung was over 100 µM each time.

Take `CC(=O)OC(C)C(=O)C1c2cccc(O)c2C(=O)c2c(O)cc(C)cc21` (configuration not stated): the TGI in the experiment with A498 renal was 3.68 µM; with HT29 colon, 3.03 µM; in the experiment on LOX IMVI melanoma, 1.82 µM; with MALME-3M melanoma it was 1.82 µM; in the experiment on NCI-H23 lung, 1.15 µM; in the experiment on NCI-H522 lung, 3.02 µM.

As to `COc1ccc(NC(=O)c2cc(OC)cc(OC)c2)cc1`, the TGI in the experiment with A498 renal, in the experiment with HT29 colon, with LOX IMVI melanoma, with M14 melanoma, with MALME-3M melanoma and with NCI-H23 lung was over 100 µM throughout. For the same molecule, in the experiment on NCI-H522 lung, the TGI is 83.8 µM.

As to `O=C1C2=C(SCCS2)C(=O)c2ccccc21`, the TGI stood at 3.65 µM in the experiment on A498 renal; 4.44 µM with HT29 colon; 2.27 µM in the experiment with LOX IMVI melanoma; 3.33 µM in the experiment with M14 melanoma; 3.2 µM with MALME-3M melanoma; 3.34 µM with NCI-H23 lung. In the experiment on NCI-H522 lung, this molecule registered a TGI of 3.17 µM.

Regarding `N#CC(C#N)=c1ccc(=C2NCC3CCCN23)cc1` (configuration not stated), the TGI in the experiment on A498 renal, in the experiment on HT29 colon, with LOX IMVI melanoma, in the experiment with M14 melanoma, in the experiment with MALME-3M melanoma and with NCI-H522 lung was over 100 µM each time.

On to `COc1ccc2c(c1)C1(C=N2)CCN(C(C)=O)CC1`, for which the TGI in the experiment on A498 renal, in the experiment on HT29 colon, with LOX IMVI melanoma, with M14 melanoma, with MALME-3M melanoma and with NCI-H23 lung was over 100 µM in each case.

Turning to `CCN(CC)CC(C(=O)Nc1c(C)cccc1C)/C(C)=N\NC(=O)C[N+](C)(C)C` (configuration not stated), the TGI with HT29 colon, in the experiment with LOX IMVI melanoma, in the experiment with M14 melanoma, in the experiment on MALME-3M melanoma, with NCI-H23 lung and in the experiment with NCI-H522 lung was over 100 µM throughout.

For the molecule `CCNC1C2(CCCCC2)NC(=O)C12CCCCC2` (configuration not stated), the TGI in the experiment on A498 renal, with HT29 colon, in the experiment on M14 melanoma, in the experiment on MALME-3M melanoma and in the experiment on NCI-H23 lung was over 100 µM throughout.

Regarding `O=C(CSC(=S)N1CCCCC1)Nc1nc2c(s1)CCCC2`, the TGI was over 100 µM in the experiment on A498 renal; over 100 µM with HT29 colon; 40.6 µM in the experiment on LOX IMVI melanoma; over 100 µM in the experiment with M14 melanoma; over 100 µM with MALME-3M melanoma; 92.7 µM in the experiment on NCI-H23 lung. Further, in the experiment on NCI-H522 lung, the TGI came to 65.7 µM.

As for `CCOC(=O)C1=C(C)CC2C(=O)OC(=O)C2C1(C)C` (configuration not stated), the TGI in the experiment on HT29 colon, with M14 melanoma, in the experiment on MALME-3M melanoma, in the experiment on NCI-H23 lung and in the experiment on NCI-H522 lung was over 100 µM throughout.

As for `NS(=O)(=O)c1ccccc1C(=O)N/N=C(\c1nc2ccc([N+](=O)[O-])cc2[nH]c1=O)C(O)c1ccc([N+](=O)[O-])cc1` (configuration not stated), the TGI in the experiment with A498 renal, in the experiment with HT29 colon, with LOX IMVI melanoma, in the experiment on M14 melanoma, in the experiment with MALME-3M melanoma and with NCI-H23 lung was over 100 µM in each case. In the experiment on NCI-H522 lung, this molecule came in with a TGI of 59.2 µM.

Regarding `CC(C)c1ccc(C(C)C(=O)N(CC2=C(C(C)c3ccccn3)c3ccccc3C2)C(C)C)cc1` (configuration not stated), the GI50 is 0.801 µM with A498 renal; 1.6 µM in the experiment on HT29 colon; 2.54 µM in the experiment with LOX IMVI melanoma; 3.93 µM in the experiment with M14 melanoma; 2.83 µM in the experiment with MALME-3M melanoma; 3.47 µM in the experiment with MDA-MB-231 breast. Moreover, the GI50 in the experiment with MDA-MB-435 was 3.73 µM; with NCI-H23 lung, 3.35 µM; in the experiment on NCI-H522 lung, 2.59 µM. For the same molecule, the TGI with A498 renal amounted to 5.59 µM; in the experiment with HT29 colon, 3.77 µM; with LOX IMVI melanoma, 8.23 µM; in the experiment on M14 melanoma, 15.6 µM; with MALME-3M melanoma, 8.57 µM; in the experiment on MDA-MB-231 breast, 22.7 µM. Moreover, the TGI is 55.6 µM in the experiment on MDA-MB-435, 53.6 µM with NCI-H23 lung and 15.7 µM with NCI-H522 lung.
